From ChEMBL document CHEMBL1139446, “4,5-Disubstituted-1,3-oxazolidin-2-imine derivatives: a new class of orally bioavailable nitric oxide synthase inhibitor” (Bioorg Med Chem Lett, 2004)

Tests used:
[1] = target: T1, Nitric oxide synthase, inducible (Mus musculus, UniProt P29477); assay: (§1) Inhibition of inducible nitric oxide synthase (iNOS) in mice
T1 sequence (P29477 whole entry): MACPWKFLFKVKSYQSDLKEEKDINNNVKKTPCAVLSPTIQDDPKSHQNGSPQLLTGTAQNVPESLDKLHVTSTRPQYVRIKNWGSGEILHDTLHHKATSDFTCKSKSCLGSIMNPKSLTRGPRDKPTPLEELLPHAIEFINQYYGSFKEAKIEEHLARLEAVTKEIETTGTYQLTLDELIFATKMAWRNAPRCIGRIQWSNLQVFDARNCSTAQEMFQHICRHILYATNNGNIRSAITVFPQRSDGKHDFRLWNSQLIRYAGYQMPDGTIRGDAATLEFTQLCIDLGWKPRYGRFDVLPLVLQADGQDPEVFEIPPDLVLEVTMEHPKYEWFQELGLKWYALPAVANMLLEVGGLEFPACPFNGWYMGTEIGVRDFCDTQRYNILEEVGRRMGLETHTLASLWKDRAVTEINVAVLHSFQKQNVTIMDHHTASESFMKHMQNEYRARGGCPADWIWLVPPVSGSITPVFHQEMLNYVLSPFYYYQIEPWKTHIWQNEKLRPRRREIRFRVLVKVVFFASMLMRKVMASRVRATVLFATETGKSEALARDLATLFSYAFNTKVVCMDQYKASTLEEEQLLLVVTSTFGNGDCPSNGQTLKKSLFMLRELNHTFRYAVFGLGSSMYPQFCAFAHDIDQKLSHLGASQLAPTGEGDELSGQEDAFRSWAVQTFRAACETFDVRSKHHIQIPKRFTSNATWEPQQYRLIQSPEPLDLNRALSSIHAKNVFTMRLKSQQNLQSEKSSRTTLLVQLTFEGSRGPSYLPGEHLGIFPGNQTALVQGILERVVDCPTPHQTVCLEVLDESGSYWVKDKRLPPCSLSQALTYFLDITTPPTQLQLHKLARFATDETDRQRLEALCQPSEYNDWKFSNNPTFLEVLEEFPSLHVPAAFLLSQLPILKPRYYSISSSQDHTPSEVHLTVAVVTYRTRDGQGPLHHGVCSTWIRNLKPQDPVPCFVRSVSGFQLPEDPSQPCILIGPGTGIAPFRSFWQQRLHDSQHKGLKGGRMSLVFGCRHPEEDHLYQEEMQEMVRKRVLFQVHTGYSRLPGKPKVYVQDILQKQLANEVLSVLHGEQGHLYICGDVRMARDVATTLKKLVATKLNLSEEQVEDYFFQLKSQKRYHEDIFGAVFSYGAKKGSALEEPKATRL

Nitric oxide synthase 1 = Nitric oxide synthase 1 (Mus musculus, UniProt Q9Z0J4); assay: (§2) Inhibition of neuronal nitric oxide synthase (nNOS) in mice
Nitric oxide synthase 1, sequence (Q9Z0J4 whole entry): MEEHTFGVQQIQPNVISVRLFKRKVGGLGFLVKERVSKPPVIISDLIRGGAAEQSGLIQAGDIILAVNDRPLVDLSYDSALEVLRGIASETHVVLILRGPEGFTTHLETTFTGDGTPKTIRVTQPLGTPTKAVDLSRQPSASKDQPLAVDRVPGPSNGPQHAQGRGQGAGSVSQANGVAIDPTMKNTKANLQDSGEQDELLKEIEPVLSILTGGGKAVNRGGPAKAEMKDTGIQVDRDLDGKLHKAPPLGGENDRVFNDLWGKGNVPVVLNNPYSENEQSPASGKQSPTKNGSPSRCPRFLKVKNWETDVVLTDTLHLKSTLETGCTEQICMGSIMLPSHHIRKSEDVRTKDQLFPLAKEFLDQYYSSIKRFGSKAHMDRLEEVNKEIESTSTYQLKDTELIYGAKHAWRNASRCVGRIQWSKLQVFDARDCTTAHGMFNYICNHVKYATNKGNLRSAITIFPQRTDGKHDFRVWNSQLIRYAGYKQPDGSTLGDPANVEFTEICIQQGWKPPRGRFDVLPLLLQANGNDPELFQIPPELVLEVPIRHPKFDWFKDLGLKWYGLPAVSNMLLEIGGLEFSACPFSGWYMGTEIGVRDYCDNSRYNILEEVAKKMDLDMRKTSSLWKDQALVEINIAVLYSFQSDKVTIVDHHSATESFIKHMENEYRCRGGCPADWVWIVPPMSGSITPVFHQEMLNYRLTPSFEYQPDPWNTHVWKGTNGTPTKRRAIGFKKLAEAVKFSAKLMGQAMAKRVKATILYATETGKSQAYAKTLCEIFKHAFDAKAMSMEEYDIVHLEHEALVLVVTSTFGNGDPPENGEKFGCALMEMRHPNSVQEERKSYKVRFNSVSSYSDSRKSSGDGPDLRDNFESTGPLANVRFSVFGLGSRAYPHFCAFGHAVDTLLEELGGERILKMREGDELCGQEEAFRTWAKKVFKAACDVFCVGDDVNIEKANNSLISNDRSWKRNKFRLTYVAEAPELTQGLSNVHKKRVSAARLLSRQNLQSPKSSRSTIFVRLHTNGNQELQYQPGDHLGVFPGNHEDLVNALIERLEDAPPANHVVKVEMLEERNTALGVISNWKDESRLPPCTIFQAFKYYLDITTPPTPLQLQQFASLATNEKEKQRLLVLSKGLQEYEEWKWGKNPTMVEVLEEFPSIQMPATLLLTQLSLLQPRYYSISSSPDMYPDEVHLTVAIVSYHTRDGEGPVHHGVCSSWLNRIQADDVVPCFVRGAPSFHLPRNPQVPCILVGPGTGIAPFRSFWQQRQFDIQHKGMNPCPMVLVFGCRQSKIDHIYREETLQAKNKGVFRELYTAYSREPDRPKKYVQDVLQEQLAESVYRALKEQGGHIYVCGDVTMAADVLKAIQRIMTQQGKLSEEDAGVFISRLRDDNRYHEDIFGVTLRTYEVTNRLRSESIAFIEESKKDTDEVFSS

Mus musculus = organism: Mus musculus; assay: Selectivity ratio of IC50 of nNOS to IC50 of iNOS
[2] = target: T2, Nitric oxide synthase, inducible (Mus musculus) (UniProt P29477); assay: as §1; conditions: concentration not given here
T2 sequence (whole entry): T1 sequence (P29477 whole entry)

[3] = target: Nitric oxide synthase 1 (Mus musculus) (UniProt Q9Z0J4); assay: as §2; conditions: concentration not given here
Nitric oxide synthase 1 (Mus musculus), sequence (Q9Z0J4 whole entry): as above

Compound: CC[C@@H]1N=C(N)O[C@@H]1CC
- IC50 [1]: 130 nM
- IC50 (Nitric oxide synthase 1): 1200 nM

Compound: C[C@H]1CC(=N)N[C@@H]2[C@H](Cl)[C@@H]21
- IC50 [1]: 3 nM
- IC50 (Nitric oxide synthase 1): 15 nM

Compound: CC[C@@H]1N=C(N)O[C@@H]1C
- IC50 [1]: 120 nM
- Selectivity (Mus musculus): 5.7
- IC50 (Nitric oxide synthase 1): 680 nM

Compound: CCC[C@@H]1N=C(N)O[C@@H]1C
- IC50 [1]: 41 nM
- Selectivity (Mus musculus): 22
- IC50 (Nitric oxide synthase 1): 920 nM

Compound: CCCCC[C@@H]1N=C(N)O[C@H]1C
- IC50 [1]: 500 nM
- Selectivity (Mus musculus): 1.6
- IC50 (Nitric oxide synthase 1): 790 nM

Compound: NC1=NC(c2ccccc2)CO1 (stereo not given)
- inhibition [2]: 28%
- inhibition [3]: 18%

Compound: CCC1CN=C(N)O1 (stereo not given)
- IC50 [1]: 280 nM
- Selectivity (Mus musculus): 6.4
- IC50 (Nitric oxide synthase 1): 1800 nM

Compound: CCCCC[C@@H]1N=C(N)O[C@@H]1C
- IC50 [1]: 230 nM
- Selectivity (Mus musculus): 16
- IC50 (Nitric oxide synthase 1): 3600 nM

Compound: CC[C@@H]1N=C(N)O[C@H]1C
- IC50 [1]: 170 nM
- Selectivity (Mus musculus): 14
- IC50 (Nitric oxide synthase 1): 2300 nM

Compound: CNC(=N)NCCC[C@H](N)C(=O)O [TILARGININE]
- IC50 (Nitric oxide synthase 1): 4300 nM

Compound: CC[C@H]1OC(N)=N[C@H]1C
- IC50 [1]: 160 nM
- Selectivity (Mus musculus): 5.3
- IC50 (Nitric oxide synthase 1): 850 nM

Compound: CC1CN=C(N)O1 (stereo not given)
- IC50 [1]: 74 nM
- Selectivity (Mus musculus): 19
- IC50 (Nitric oxide synthase 1): 1400 nM

Compound: CCC[C@@H]1N=C(N)O[C@H]1C
- IC50 [1]: 120 nM
- Selectivity (Mus musculus): 4.8
- IC50 (Nitric oxide synthase 1): 570 nM

Compound: CCC[C@@H]1N=C(N)O[C@H]1CCC
- IC50 [1]: 2500 nM
- Selectivity (Mus musculus): 29
- IC50 (Nitric oxide synthase 1): 73000 nM

Compound: CC[C@@H]1N=C(N)O[C@H]1CC
- IC50 [1]: 56 nM
- Selectivity (Mus musculus): 45
- IC50 (Nitric oxide synthase 1): 2500 nM

Compound: CC[C@@H]1OC(N)=N[C@H]1C
- IC50 [1]: 120 nM
- Selectivity (Mus musculus): 14
- IC50 (Nitric oxide synthase 1): 1700 nM

Compound: C[C@H]1CC(N)=N[C@@H]2[C@H](Cl)[C@@H]21
- Selectivity (Mus musculus): 5

Compound: C[C@@H]1N=C(N)O[C@@H]1C
- IC50 [1]: 150 nM
- Selectivity (Mus musculus): 11
- IC50 (Nitric oxide synthase 1): 1600 nM

Compound: CCC[C@@H]1N=C(N)O[C@@H]1CCC
- IC50 [1]: 6800 nM
- Selectivity (Mus musculus): 8.4
- IC50 (Nitric oxide synthase 1): 57000 nM

Compound: CC1COC(N)=N1 (stereo not given)
- IC50 [1]: 1500 nM
- Selectivity (Mus musculus): 6.5
- IC50 (Nitric oxide synthase 1): 9800 nM

Compound: CCC1COC(N)=N1 (stereo not given)
- IC50 [1]: 1600 nM
- Selectivity (Mus musculus): 1.8
- IC50 (Nitric oxide synthase 1): 2800 nM

Compound: NC1=NCCO1
- IC50 [1]: 7900 nM
- Selectivity (Mus musculus): 4.3
- IC50 (Nitric oxide synthase 1): 34000 nM

Compound: NC1=NCC(CBr)O1 (stereo not given)
- IC50 [1]: 500 nM
- Selectivity (Mus musculus): 0.8
- IC50 (Nitric oxide synthase 1): 400 nM

Compound: N=C(NCCC[C@H](N)C(=O)O)N[N+](=O)[O-] [NITROARGININE]
- IC50 [1]: 80000 nM
- Selectivity (Mus musculus): 0.0063
- IC50 (Nitric oxide synthase 1): 500 nM
